Here are results for one compound from ChEMBL document CHEMBL1138951 (J Med Chem, 2006).

The IC90 is the concentration at which the effect reaches the 90% level.

Holding throughout (format): functional, organism-based
Test [1] has as its system Plasmodium falciparum. The test can be described thus: Antimalarial activity against Plasmodium falciparum W2.
Test [2] concerns Plasmodium falciparum. The test can be described thus: Antimalarial activity against Plasmodium falciparum HB3.
Test [3] relates to Plasmodium falciparum. As to the kind of experiment: Antimalarial activity against Plasmodium falciparum Dd2.

On to `CCN(CC)CCCC(C)Nc1ccnc2cc(Cl)ccc12` (stereo not drawn) [CHLOROQUINE], for which the concentration for an effect of 90% (IC90) in test [1] turned out to be 802 nM; in test [2] it was 45.7 nM; in test [3] it was 167 nM.
